Data set [1] has as its system mouse sensory neurons activated by capsaicin. Description: Calcium flux in sensory neurons activated by capsaicin (TRPV1 agonist). The class given is cell-based. The procedure:
(§1) FIG. 4: C12-Asn-GABA inhibits neuronal activation via the GABA B receptor. Amplitude of intracellular calcium mobilization (ΔF/F; right panel) in mouse sensory neurons and percentage of responding neurons (left panel) pretreated with increasing amounts of C12-Asn-GABA (black circle) or vehicle (HBSS; white circle) and treated with capsaicin (125 nM; A) or a mix of G protein coupled receptor agonists (histamine, serotonin and bradykinin 10 μM each; B). Data are represented as mean±SEM; n=4 independent experiments of 3 wells per condition and 30-80 neurons per well. […] Percentage of responding neurons pretreated with increasing amounts of saclofen (black circle) or vehicle (HBSS; white circle) and treated with C12-Asn-GABA (10 μM) and capsaicin (125 nM; C) or a mix of G protein coupled receptor agonist (histamine, serotonin and bradykinin 10 μM each; D). Data are represented as mean±SEM; n=4 independent experiments of 3 wells per condition and 30-80 neurons per well.
FIG. 7: C14-Asn-GABA inhibits neuronal activation by capsaicin. Amplitude of intracellular calcium mobilization (F/F; A) in mouse sensory neurons and percentage of responding neurons (B) pretreated with 10 μM of C14-Asn-GABA (black bar) or vehicle (HBSS; white bar) and treated with capsaicin (125 nM). Data are represented as mean±SEM; n=3 independent experiments of 3 wells per condition and 35-82 neurons per well.
(§2) Male C57B16 mice (6-8 weeks) were used to produce primary cultures of dorsal root ganglia (DRG) sensory neurons for calcium flux experiments, and to perform studies of colorectal distention and intestinal isotonic contraction. All procedures were approved by Institutional Animal Care Committees (CEEA 122).
To determine whether C12-Asn-GABA or C12-Asn-BABA is capable of signaling to sensory nerves, calcium mobilization studies were performed on primary cultures of mouse dorsal root ganglia (DRG) neurons. […]

In data set [2] the test system is mouse sensory neurons activated by mix of GPCR agonists (histamine, serotonin, bradykinin). Description: Calcium flux in sensory neurons activated by mix of GPCR agonists. The class given is cell-based. To be noted: serotonin 10 μM each, pretreatment with increasing amounts of compound. Here is the method:
as §1
Male C57B16 mice (6-8 weeks) were used to produce primary cultures of dorsal root ganglia (DRG) sensory neurons for calcium flux experiments, and to perform studies of colorectal distention and intestinal isotonic contraction. All procedures were approved by Institutional Animal Care Committees (CEEA 122). […]

Data set [3] deals with mouse dorsal root ganglia (DRG) neurons. Briefly: Calcium mobilization in primary DRG sensory neurons, basal (unstimulated). It counts as cell-based. Conditions: 10 μM. Here is the method:
as §2
To determine whether C12-Asn-GABA or C12-Asn-BABA is capable of signaling to sensory nerves, calcium mobilization studies were performed on primary cultures of mouse dorsal root ganglia (DRG) neurons. […] The same experiments were thereafter performed in neurons activated by either an agonist of the receptor calcium channel TRPV1 (capsaicin) or by a mix of agonists (histamine, serotonin and bradykinin) for G protein coupled receptors (GPCR) implicated in visceral hypersensitivity. Exposure of neurons to either capsaicin (125 nM) or the mix of GPCR agonists (histamine, bradykinin, serotonin, 10 μM each) induced an increase in calcium flux as shown by the higher % of responding neurons and amplitude of the response (ΔF/F) compared to the vehicle (FIG. 4A, 4B). […] To investigate whether the inhibitory effect of C12-Asn-GABA was associated to the GABA residue, neurons were treated with saclofen (10, 50, and 100 μM), a competitive antagonist of the GABAB receptor. […]

The subject of data set [4] is Caco-2 cells. Briefly: Absorption across Caco-2 monolayer in transwell chambers. The class given is in vitro ADME, human. Conditions: 800 ng apical, 24 h, LC-HRMS. The procedure:
FIG. 5: C12-Asn-GABA crosses the epithelial barrier without modifying epithelial cells physiology. Caco-2 cells were cultivated into transwell chambers. After treatment with C12-Asn-GABA (800 ng) at the apical side, C12-Asn-GABA was quantified inside the cells and both the apical and basolateral compartments by LC-MS/MS (A); data are represented as mean±SEM, n=3 experiments of 3 wells per condition. Extracted ion chromatogram at the exact mass of GABA (104.0702 m/z) with a mass accuracy of 5 ppm of the GABA commercial standard (GABA (Std.) and apical and basolateral compartments after loading or not Caco-2 cells with 800 ng of GABA at the apical site (B); representation of one well, n=3 experiments of 3 wells per condition. Paracellular permeability assessed by the passage of FITC-dextran loaded at the apical side (C) and CXCL8 secretion assessed by ELISA (D) were monitored after treatment of Caco-2 cells at the apical side with C12-Asn-GABA (10 μM); data are represented as mean±SEM, n=3 experiments of 3 wells per condition. […]
Caco-2 cells were grown in Glutamax DMEM (Gibco, Invitrogen life technologies, Paisley, UK) supplemented with 10% heat-inactivated fetal bovine serum (FBS) (Gibco, Invitrogen life technologies, Paisley, UK), 1% nonessential amino acids and 1% antibiotics (100 U/ml penicillin and […] streptomycin (Gibco, Invitrogen life technologies, Grand Island, N.Y., USA) at 37° C. in a 5% C02 water-saturated atmosphere. Cells were seeded on Transwell inserts (Costar, Sigma-Aldrich, Saint-Quentin Fallavier, France) and absorption studies of C12-Asn-GABA and GABA were performed 16 days later. These compounds were quantified by LC-MS/MS in both apical and basolateral chambers as well as in cells. The effect of C12-Asn-GABA (1-100 μM) on paracellular permeability was also measured by mucosal-to-serosal flux of 4 kDa Fluorescein Isothiocyanate (FITC)-labelled dextran as previously described^31. […]
The initial barrier for any drug absorption is the intestinal epithelial cell wall. […] The transport of GABA alone across the cell monolayer was also assessed. […]

The subject of data set [5] is capsaicin-induced visceral hypersensitivity. Description: Capsaicin-induced visceral hypersensitivity, visceromotor response to colorectal distension. The class given is in vivo, mouse. To be noted: oral 25 mg/kg, 4 hours before intracolonic capsaicin 100 μg/mouse. The procedure:
FIG. 6: C12-Asn-GABA inhibits capsaicin-induced visceral hypersensitivity without altering Intestinal contraction. Mice received intracolonic administration of C12-Asn-GABA (10 μM; black symbols) or vehicle (40% ethanol; white symbols) and 30 minutes or 4 hours later colon (A) and blood (B) were harvested in order to quantify C12-Asn-GABA by LC-MS/MS. Data are expressed as mean±SEM, n=8 mice per group. […] Mice received intracolonic administration of C12-Asn-GABA (10 μM; black symbols) or vehicle (40% ethanol; white symbols) and 30 minutes or 4 hours later an intracolonic administration of capsaicin (100 μg/mouse; square) or its vehicle (40% ethanol; circle). Fifteen minutes after capsaicin or vehicle treatment, visceromotor response (VMR) to increasing pressures of colorectal distension was performed. Data are expressed as mean±SEM, n=7-8 mice per group. […] Ex vivo measurement of duodenal mechanical contraction frequency (B) and amplitude (C) in response to Krebs-Ringer solution (control; white bar), to DMSO 0.2% (vehicle; gray bar) or to C12-Asn-GABA (10 μM; black bar). Data are expressed as mean±SEM, n=5-6 per group. Statistical analysis was performed using Kruskal-Wallis analysis of variance and subsequent Dunn's post hoc test.
FIG. 8: Trimebutine maleate has no effect on capsaicin-induced visceral hypersensitivity. Mice received an oral treatment with vehicle (PEG200, white circle) or with trimebutine maleate (25 mg/kg, black circle) and 4 hours later an intracolonic administration of capsaicin (100 μg/mouse; black and white circle). Fifteen minutes after capsaicin, visceromotor response (VMR) to increasing pressures of colorectal distension was performed. Data are expressed as mean±SEM, n=7-8 mice per group. […]
In a first set of experiment, we assessed the ability of the C12-Asn-GABA to cross the epithelial barrier, in vivo. […] The impact of C12-Asn-GABA on visceral hypersensitivity was assessed by measuring the visceromotor responses (VMR) to colorectal distension (CRD). […]

For the compound `CCCCCCCCCCCC(=O)N[C@@H](CC(N)=O)C(=O)NC(C)CC(=O)O` (stereo partly drawn) [C12-Asn-BABA, C12-Asn-β-aminobutyric], the “calcium flux increase induced by capsaicin (% responding neurons, amplitude ΔF/F)” value in data set [1] (capsaicin 125 nM, pretreatment with increasing amounts of compound) is listed as “had no effect”. Also, the “calcium flux increase induced by mix of GPCR agonists (% responding neurons, amplitude ΔF/F)” value in data set [2] is given as “had no effect”. Also, in data set [3], the “calcium mobilization under basal (unstimulated) conditions” value is listed as “None of the isomers (10 μM) induced calcium mobilization”. With `CCCCCCCCCCCCCC(=O)NC(CC(N)=O)C(=O)NCCCC(=O)O` (stereo not drawn) [C14-Asn-GABA], the “calcium flux increase induced by capsaicin (amplitude, % responding neurons)” value in data set [1] (10 μM, pre-treated 5 minutes before capsaicin 125 nM) is on record as “prevented by C14-Asn-GABA pretreatment”.

As for `NCCCC(=O)O` [GABA, gamma-Aminobutyric acid, reference compound], the “presence in the basal chamber” value in data set [4] is given as “not detected”.

Take “trimebutine maleate [reference compound]”: in data set [5], the “hypersensitivity induced by capsaicin (VMR to CRD)” value was “has no effect”.

For the origin of these results see patent publication US11912645B2, “Lipopeptide compounds for the treatment of pain disorders” (INSERM (Institut National de la Santé et de la Recherche …, priority 2017, dated 2024).
